Results as given in ChEMBL document CHEMBL4190279 (Eur J Med Chem, 2017).

What was measured:
[1] = Selectivity index, ratio of Ki for equine serum BuChE assessed as enzyme-substrate-inhibitor complex to Ki for electric eel AChE assessed as enzyme-substrate-inhibitor complex
Cholinesterase [2] = target: T1, Cholinesterase (Equus caballus, UniProt P81908); test: Mixed-type inhibition of equine serum BuChE assessed as enzyme-substrate-inhibitor complex using p-nitrophenyl butyrate as substrate by Lineweaver-Burk plot analysis
T1 sequence (P81908 whole entry): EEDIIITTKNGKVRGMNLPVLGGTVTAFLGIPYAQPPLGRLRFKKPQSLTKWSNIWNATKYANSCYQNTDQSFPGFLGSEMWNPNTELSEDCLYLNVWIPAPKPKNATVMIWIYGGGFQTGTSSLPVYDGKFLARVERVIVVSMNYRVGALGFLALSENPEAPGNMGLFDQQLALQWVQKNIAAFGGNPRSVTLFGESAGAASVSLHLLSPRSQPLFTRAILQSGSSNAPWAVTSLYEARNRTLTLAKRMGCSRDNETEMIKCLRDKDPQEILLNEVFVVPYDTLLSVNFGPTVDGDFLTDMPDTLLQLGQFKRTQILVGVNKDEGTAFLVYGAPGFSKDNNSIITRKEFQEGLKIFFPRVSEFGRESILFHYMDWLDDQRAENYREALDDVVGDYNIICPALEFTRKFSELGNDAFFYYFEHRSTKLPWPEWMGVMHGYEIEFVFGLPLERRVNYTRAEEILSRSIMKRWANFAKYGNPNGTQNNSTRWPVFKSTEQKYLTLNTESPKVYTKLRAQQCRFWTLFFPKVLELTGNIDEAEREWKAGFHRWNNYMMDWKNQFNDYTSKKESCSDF

A549 [3] = test: cells; conditions: Homo sapiens, A549, 48 h
Description: Antiproliferative activity against human A549 cells after 48 hrs by SRB assay

Acetylcholinesterase [4] = target: T2, Acetylcholinesterase (Electrophorus electricus, UniProt O42275); test: Non-competitive inhibition of electric eel AChE assessed as enzyme-inhibitor complex using p-nitrophenyl acetate as substrate by Lineweaver-Burk plot analysis
T2 sequence (O42275 whole entry): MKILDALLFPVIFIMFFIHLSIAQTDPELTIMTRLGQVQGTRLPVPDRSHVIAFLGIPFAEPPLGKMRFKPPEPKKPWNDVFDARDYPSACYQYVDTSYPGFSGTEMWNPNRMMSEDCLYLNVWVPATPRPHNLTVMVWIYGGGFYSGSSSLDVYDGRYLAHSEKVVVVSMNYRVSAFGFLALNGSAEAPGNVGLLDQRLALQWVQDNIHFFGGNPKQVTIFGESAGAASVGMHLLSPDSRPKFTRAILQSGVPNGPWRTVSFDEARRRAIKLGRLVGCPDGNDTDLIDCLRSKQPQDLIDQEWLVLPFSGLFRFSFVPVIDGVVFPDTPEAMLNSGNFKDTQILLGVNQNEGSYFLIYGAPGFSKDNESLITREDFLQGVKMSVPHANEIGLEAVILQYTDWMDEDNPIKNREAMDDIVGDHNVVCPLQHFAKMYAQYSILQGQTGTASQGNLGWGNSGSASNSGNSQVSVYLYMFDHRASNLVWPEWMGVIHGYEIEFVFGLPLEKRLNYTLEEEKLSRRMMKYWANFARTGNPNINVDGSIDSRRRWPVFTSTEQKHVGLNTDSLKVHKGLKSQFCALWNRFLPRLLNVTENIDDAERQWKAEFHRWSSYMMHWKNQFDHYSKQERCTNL

SW1573 [5] = test: Potency index, ratio of 5-FU GI50 to compound GI50 for human SW1573 cells; format: functional
T47D [6] = test: Potency index, ratio of cisplatin GI50 to compound GI50 for human T47D cells; format: functional
WiDr [7] = test: Potency index, ratio of 5-FU GI50 to compound GI50 for human WiDr cells; format: functional
T47D [8] = test: Potency index, ratio of 5-FU GI50 to compound GI50 for human T47D cells; format: functional
[9] = GPx-like activity of the compound assessed as half life for H2O2 reduction by measuring oxidation of PhSH to (PhS)2 at 50 uM measured for 180 secs by spectrophotometric analysis relative to control; format: functional
HeLa [10] = test: Potency index, ratio of 5-FU GI50 to compound GI50 for human HeLa cells; format: functional
HeLa [11] = test: Potency index, ratio of cisplatin GI50 to compound GI50 for human HeLa cells; format: functional
HeLa [12] = test: cells; conditions: Homo sapiens, 48 h
Description: Antiproliferative activity against human HeLa cells after 48 hrs by SRB assay

HBL-100 [13] = test: Potency index, ratio of 5-FU GI50 to compound GI50 for human HBL100 cells; format: functional
HBL-100 [14] = test: Potency index, ratio of cisplatin GI50 to compound GI50 for human HBL100 cells; format: functional
Cholinesterase [15] = target: T1, Cholinesterase; test: Mixed-type inhibition of equine serum BuChE assessed as enzyme-inhibitor complex using p-nitrophenyl butyrate as substrate by Lineweaver-Burk plot analysis
in vitro = conditions: human, hTERT-BJ cells
Description: Antiproliferative activity against human hTERT-BJ cells after 48 hrs by SRB assay

A549 [16] = test: Potency index, ratio of cisplatin GI50 to compound GI50 for human A549 cells; format: functional
WiDr [17] = test: cells; conditions: Homo sapiens, 48 h
Description: Antiproliferative activity against human WiDr cells after 48 hrs by SRB assay

T47D [18] = test: cells; conditions: Homo sapiens, 48 h
Description: Antiproliferative activity against human T47D cells after 48 hrs by SRB assay

SW1573 [19] = test: Potency index, ratio of cisplatin GI50 to compound GI50 for human SW1573 cells; format: functional
WiDr [20] = test: Potency index, ratio of cisplatin GI50 to compound GI50 for human WiDr cells; format: functional
[21] = GPx-like activity of the compound assessed as velocity for H2O2 reduction by measuring oxidation of PhSH to (PhS)2 at 50 uM measured for 180 secs by spectrophotometric analysis; format: functional
Acetylcholinesterase [22] = target: T2, Acetylcholinesterase; test: Non-competitive inhibition of electric eel AChE assessed as enzyme-substrate-inhibitor complex using p-nitrophenyl acetate as substrate by Lineweaver-Burk plot analysis
HBL-100 [23] = test: cells; conditions: Homo sapiens, HBL-100, 48 h
Description: Antiproliferative activity against human HBL100 cells after 48 hrs by SRB assay

[24] = GPx-like activity of the compound assessed as H2O2 reduction by measuring oxidation of PhSH to (PhS)2 at 50 uM measured for 180 secs by spectrophotometric analysis relative to control; format: functional
SW1573 [25] = test: cells; conditions: Homo sapiens, SW1573, 48 h
Description: Antiproliferative activity against human SW1573 cells after 48 hrs by SRB assay

[26] = Potency index, ratio of compound velocity to ebselen velocity for GPx-like activity assessed as H2O2 reduction by measuring oxidation of PhSH to (PhS)2; format: functional
[27] = Potency index, ratio of compound velocity to diphenyl diselenide velocity for GPx-like activity assessed as H2O2 reduction by measuring oxidation of PhSH to (PhS)2; format: functional
Cholinesterase [28] = target: T1, Cholinesterase; test: Non-competitive inhibition of equine serum BuChE assessed as enzyme-inhibitor complex using p-nitrophenyl butyrate as substrate by Lineweaver-Burk plot analysis
Cholinesterase [29] = target: T1, Cholinesterase; test: Non-competitive inhibition of equine serum BuChE assessed as enzyme-substrate-inhibitor complex using p-nitrophenyl butyrate as substrate by Lineweaver-Burk plot analysis
[30] = target: Amyloid-beta precursor protein (Homo sapiens) (UniProt P05067); test: Inhibition of amyloid beta (1 to 42) (unknown origin) self aggregation at 50 uM relative to control
Sequence of Amyloid-beta precursor protein (Homo sapiens) (P05067 whole entry): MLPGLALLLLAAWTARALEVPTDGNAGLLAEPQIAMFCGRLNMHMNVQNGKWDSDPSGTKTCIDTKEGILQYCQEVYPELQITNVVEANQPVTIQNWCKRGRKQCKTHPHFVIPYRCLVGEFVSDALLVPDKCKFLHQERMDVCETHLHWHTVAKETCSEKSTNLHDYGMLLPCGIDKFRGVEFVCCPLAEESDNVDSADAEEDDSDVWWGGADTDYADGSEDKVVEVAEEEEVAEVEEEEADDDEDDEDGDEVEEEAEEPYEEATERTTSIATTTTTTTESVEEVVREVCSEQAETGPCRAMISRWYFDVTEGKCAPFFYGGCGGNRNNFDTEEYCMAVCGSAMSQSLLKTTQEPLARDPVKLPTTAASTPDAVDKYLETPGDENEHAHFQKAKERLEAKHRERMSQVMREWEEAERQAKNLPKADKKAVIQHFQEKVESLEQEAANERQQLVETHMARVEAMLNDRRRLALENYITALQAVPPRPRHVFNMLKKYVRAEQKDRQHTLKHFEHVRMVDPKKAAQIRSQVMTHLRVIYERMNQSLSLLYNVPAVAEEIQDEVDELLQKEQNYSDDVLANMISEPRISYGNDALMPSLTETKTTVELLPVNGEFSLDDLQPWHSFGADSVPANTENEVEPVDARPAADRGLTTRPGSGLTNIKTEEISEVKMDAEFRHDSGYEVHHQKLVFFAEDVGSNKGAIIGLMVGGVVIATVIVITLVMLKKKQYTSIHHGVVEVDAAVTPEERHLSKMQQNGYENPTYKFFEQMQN

[31] = Selectivity index, ratio of GI50 for human hTERT-BJ cells to GI50 for human WiDr cells; format: toxicity; conditions: hTERT-BJ cells versus WiDr cells, read-out: RatioGI50
Acetylcholinesterase [32] = target: T2, Acetylcholinesterase; test: Uncompetitive inhibition of electric eel AChE assessed as enzyme-substrate-inhibitor complex using p-nitrophenyl acetate as substrate by Lineweaver-Burk plot analysis
Acetylcholinesterase [33] = target: T2, Acetylcholinesterase; test: Competitive inhibition of electric eel AChE assessed as enzyme-inhibitor complex using p-nitrophenyl acetate as substrate by Lineweaver-Burk plot analysis
Cholinesterase [34] = target: T1, Cholinesterase
Description: Competitive inhibition of equine serum BuChE assessed as enzyme-inhibitor complex using p-nitrophenyl butyrate as substrate by Lineweaver-Burk plot analysis

Acetylcholinesterase [35] = target: T2, Acetylcholinesterase; test: Mixed-type inhibition of electric eel AChE assessed as enzyme-substrate-inhibitor complex using p-nitrophenyl acetate as substrate by Lineweaver-Burk plot analysis
Acetylcholinesterase [36] = target: T2, Acetylcholinesterase; test: Mixed-type inhibition of electric eel AChE assessed as enzyme-inhibitor complex using p-nitrophenyl acetate as substrate by Lineweaver-Burk plot analysis
Acetylcholinesterase [37] = target: T3, Acetylcholinesterase (Homo sapiens, UniProt P22303); test: Inhibition of human serum AChE using acetylthiocholine iodide as substrate preincubated for 20 mins followed by substrate addition measured after 5 mins by Ellman's method
T3 sequence (P22303 whole entry): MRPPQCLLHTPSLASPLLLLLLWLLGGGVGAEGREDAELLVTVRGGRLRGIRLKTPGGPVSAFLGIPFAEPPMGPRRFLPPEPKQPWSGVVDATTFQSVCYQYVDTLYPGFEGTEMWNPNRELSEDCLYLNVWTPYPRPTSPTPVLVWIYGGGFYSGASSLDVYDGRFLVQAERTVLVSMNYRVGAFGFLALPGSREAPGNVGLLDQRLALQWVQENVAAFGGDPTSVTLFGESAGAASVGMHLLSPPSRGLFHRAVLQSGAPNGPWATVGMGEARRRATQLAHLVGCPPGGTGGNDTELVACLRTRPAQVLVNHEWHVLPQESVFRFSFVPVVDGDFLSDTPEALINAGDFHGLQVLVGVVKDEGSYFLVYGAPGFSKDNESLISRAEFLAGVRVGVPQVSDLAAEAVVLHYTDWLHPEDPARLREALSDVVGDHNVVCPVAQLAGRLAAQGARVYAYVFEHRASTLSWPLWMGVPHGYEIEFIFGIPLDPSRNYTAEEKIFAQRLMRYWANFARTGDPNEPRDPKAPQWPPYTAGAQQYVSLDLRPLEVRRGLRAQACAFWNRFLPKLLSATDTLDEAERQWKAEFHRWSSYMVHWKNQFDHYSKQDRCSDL

[38] = target: Amyloid-beta precursor protein (Homo sapiens) (UniProt P05067); test: Inhibition of amyloid beta (1 to 42) (unknown origin) self aggregation at 50 uM after 24 hrs by ThT-based fluorometric method relative to control
Acetylcholinesterase [39] = target: T3, Acetylcholinesterase; test: Potency index, ratio of cystamine-tacrine IC50 to compound IC50 for human AChE
N2a = test: Cytotoxicity against mouse N2A cells assessed as reduction in cell viability at 50 uM after 24 hrs by MTT assay; format: cell-based

Row | SMILES | Ratio Ki [1] | GI50 (A549 [3]) [nM] | T1/2 [9] [h] | GI50 (HeLa [12]) [nM] | GI50 at 48 h (in vitro) [nM] | GI50 (WiDr [17]) [nM] | GI50 (T47D [18]) [nM] | Activity [21] [µM/min] | GI50 (HBL-100 [23]) [nM] | fold change (FC) [24] | GI50 (SW1573 [25]) [nM] | other results
1 | c1ccc2c(NCCCCCCSSCCCCCCNc3c4c(nc5ccccc35)CCCC4)c3c(nc2c1)CCCC3 | 4.7 | 1100 | 1.27 | 330 | 220 | 200 | 370 | 32.8 | 990 | 4.2 | 240 | Ki (Cholinesterase [2]): 70 nM; Ki (Acetylcholinesterase [4]): 14.8 nM; RatioGI50 (SW1573 [5]): <=306; RatioGI50 (T47D [6]): <=162; RatioGI50 (WiDr [7]): <=306; RatioGI50 (T47D [8]): <=306; RatioGI50 (HeLa [10]): <=306; RatioGI50 (HeLa [11]): <=162; RatioGI50 (HBL-100 [13]): <=306; RatioGI50 (HBL-100 [14]): <=162; Ki (Cholinesterase [15]): 243 nM; RatioGI50 (A549 [16]): <=162; RatioGI50 (SW1573 [19]): <=162; RatioGI50 (WiDr [20]): <=162; Ki (Acetylcholinesterase [22]): 14.8 nM
2 | O=c1c2ccccc2[se]n1-c1ccccc1 |  |  | 20.8 |  |  |  |  | 2 |  | 0.3 |  | 
3 | COc1ccc(NC(=[Se])NCCCCCCNc2c3c(nc4ccccc24)CCCC3)cc1 | 1.1 |  | 0.503 |  |  |  |  | 82.9 |  | 10.6 |  | Ki (Acetylcholinesterase [4]): 26.6 nM; Ratio [26]: 41.4; Ratio [27]: 5.6; Ki (Cholinesterase [28]): 28.6 nM; Ki (Cholinesterase [29]): 28.6 nM; Ki (Acetylcholinesterase [22]): 26.6 nM
4 | c1ccc2c(NCCCCCCCNc3c4c(nc5ccccc35)CCCC4)c3c(nc2c1)CCCC3 |  |  |  |  |  |  |  |  |  |  |  | inhibition [30]: 71.1%
5 | c1ccc([Se]CCCCCCNc2c3c(nc4ccccc24)CCCC3)cc1 | 7.1 | 860 | 2.13 | 1200 | 2400 | 890 | 660 | 19.6 | 2000 | 2.5 | 1100 | selectivity ratio [31]: ≤ 4.7; Ki (Acetylcholinesterase [32]): 8 nM; Ki (Cholinesterase [28]): 57 nM; Ki (Cholinesterase [29]): 57 nM
6 | Cc1ccc(NC(=[Se])NCCCCCCNc2c3c(nc4ccccc24)CCCC3)cc1 |  | 5500 | 1.41 | 4100 |  | 2200 | 3000 | 29.6 | 8100 | 3.8 | 3700 | Ki (Acetylcholinesterase [33]): 7.6 nM; Ki (Cholinesterase [28]): 10.7 nM; Ki (Cholinesterase [29]): 10.7 nM
7 | N#CSCCCCCNc1c2c(nc3ccccc13)CCCC2 |  | 14000 | 1.8 | 11000 |  | 4100 | 8300 | 23.1 | 15000 | 3 | 15000 | Ki (Acetylcholinesterase [4]): 50.1 nM; Ki (Cholinesterase [34]): 228 nM; Ki (Acetylcholinesterase [22]): 50.1 nM
8 | O=c1[nH]cc(F)c(=O)[nH]1 [FLUOROURACIL] |  |  |  | 15000 | 5500 | 49000 | 47000 |  | 5500 |  | 4300 | 
9 | c1ccc([Se][Se]c2ccccc2)cc1 |  |  | 2.81 |  |  |  |  | 14.8 |  | 1.9 |  | 
10 | N#C[Se]CCCCCNc1c2c(nc3ccccc13)CCCC2 |  | 1200 | 1.86 | 370 | 360 | 650 | 700 | 22.4 | 1100 | 2.9 | 650 | Ki (Cholinesterase [34]): 206 nM; Ki (Acetylcholinesterase [33]): 34.5 nM
11 | c1ccc2c(NCCSSCCNc3c4c(nc5ccccc35)CCCC4)c3c(nc2c1)CCCC3 |  |  |  |  |  |  |  |  |  |  |  | inhibition [30]: 66.3%
12 | O=C(C[Se]c1ccccc1)Nc1c2c(nc3ccccc13)CCCC2 | 0.5 | 37000 | 11.6 | 32000 |  | > 100000 | 53000 | 3.6 | 35000 | 0.5 | > 100000 | Ki (Cholinesterase [2]): 1710 nM; Ki (Cholinesterase [15]): 518 nM; Ki (Acetylcholinesterase [35]): 3540 nM; Ki (Acetylcholinesterase [36]): 8420 nM
13 | N#CSCCCCCCNc1c2c(nc3ccccc13)CCCC2 |  | 8300 | 1.93 | 8100 |  | 2400 | 5500 | 21.6 | 11000 | 2.8 | 5100 | Ki (Cholinesterase [2]): 673 nM; Ki (Cholinesterase [15]): 252 nM; Ki (Acetylcholinesterase [33]): 18.5 nM
14 | c1ccc2c(NCCCCCSSCCCCCNc3c4c(nc5ccccc35)CCCC4)c3c(nc2c1)CCCC3 | 74 | 1400 | 1.17 | 1000 | 1400 | 300 | 950 | 35.5 | 1200 | 4.6 | 290 | IC50 (Acetylcholinesterase [37]): 1.62 nM; Ki (Cholinesterase [2]): 422 nM; RatioGI50 (SW1573 [5]): <=306; RatioGI50 (T47D [6]): <=162; RatioGI50 (WiDr [7]): <=306; RatioGI50 (T47D [8]): <=306; selectivity ratio [31]: ≤ 4.7; RatioGI50 (HeLa [10]): <=306; RatioGI50 (HeLa [11]): <=162; inhibition [38]: 61.8%; RatioGI50 (HBL-100 [13]): <=306; RatioGI50 (HBL-100 [14]): <=162; Ratio IC50 (Acetylcholinesterase [39]): 3; Ki (Cholinesterase [15]): 166 nM; Activity (N2a): Non-Toxic; RatioGI50 (A549 [16]): <=162; RatioGI50 (SW1573 [19]): <=162; RatioGI50 (WiDr [20]): <=162; Ki (Acetylcholinesterase [35]): 5.7 nM; Ki (Acetylcholinesterase [36]): 3.1 nM
